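In this assay, cells in 96-well plates receive the compound at five concentrations for 48 hours. Endpoints are linearly interpolated between the surrounding concentrations. The concentration for full growth arrest is given as TGI.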
How the values were obtained:
Test in all cases: NCI tumour cell line growth inhibition, 48 h
A498 renal = tested on: A498 renal
A549 NSCLC = tested on: A549 NSCLC
CAKI-1 renal = tested on: CAKI-1 renal
CCRF-CEM leukemia = tested on: CCRF-CEM leukemia
COLO 205 colon = tested on: COLO 205 colon
DLD-1 colon = tested on: DLD-1 colon
DMS 114 small cell lung = tested on: DMS 114 small cell lung
DMS 273 small cell lung = tested on: DMS 273 small cell lung
EKVX NSCLC = tested on: EKVX NSCLC
HCC-2998 colon = tested on: HCC-2998 colon
HCT-116 colon = tested on: HCT-116 colon
HCT-15 colon = tested on: HCT-15 colon
HL-60(TB) leukemia = tested on: HL-60(TB) leukemia
HOP-18 NSCLC = tested on: HOP-18 NSCLC
HOP-62 NSCLC = tested on: HOP-62 NSCLC
HOP-92 NSCLC = tested on: HOP-92 NSCLC
HT29 colon = tested on: HT29 colon
IGROV1 ovarian = tested on: IGROV1 ovarian
K-562 leukemia = tested on: K-562 leukemia
KM12 colon = tested on: KM12 colon
KM20L2 colon = tested on: KM20L2 colon
LOX IMVI melanoma = tested on: LOX IMVI melanoma
M19-MEL melanoma = tested on: M19-MEL melanoma
MALME-3M melanoma = tested on: MALME-3M melanoma
MCF7 breast = tested on: MCF7 breast
MOLT-4 leukemia = tested on: MOLT-4 leukemia
NCI-H226 lung = tested on: NCI-H226 lung
NCI-H23 lung = tested on: NCI-H23 lung
NCI-H460 lung = tested on: NCI-H460 lung
NCI-H522 lung = tested on: NCI-H522 lung
NCI/ADR-RES ovarian = tested on: NCI/ADR-RES ovarian
OVCAR-3 ovarian = tested on: OVCAR-3 ovarian
OVCAR-4 ovarian = tested on: OVCAR-4 ovarian
OVCAR-5 ovarian = tested on: OVCAR-5 ovarian
OVCAR-8 ovarian = tested on: OVCAR-8 ovarian
P388 leukemia = tested on: P388 leukemia
P388/ADR leukemia = tested on: P388/ADR leukemia
RPMI-8226 leukemia = tested on: RPMI-8226 leukemia
RXF 393 renal = tested on: RXF 393 renal
SF-268 CNS = tested on: SF-268 CNS
SF-295 CNS = tested on: SF-295 CNS
SF-539 CNS = tested on: SF-539 CNS
SK-MEL-2 melanoma = tested on: SK-MEL-2 melanoma
SK-MEL-28 melanoma = tested on: SK-MEL-28 melanoma
SK-MEL-5 melanoma = tested on: SK-MEL-5 melanoma
SK-OV-3 ovarian = tested on: SK-OV-3 ovarian
SN12C renal = tested on: SN12C renal
SN12K1 renal = tested on: SN12K1 renal
SNB-19 CNS = tested on: SNB-19 CNS
SNB-75 CNS = tested on: SNB-75 CNS
SNB-78 CNS = tested on: SNB-78 CNS
SW-620 colon = tested on: SW-620 colon
U251 CNS = tested on: U251 CNS
UACC-257 melanoma = tested on: UACC-257 melanoma
UACC-62 melanoma = tested on: UACC-62 melanoma
UO-31 renal = tested on: UO-31 renal
XF 498 CNS = tested on: XF 498 CNS

SMILES: COc1ccc(C2COc3c(ccc(O)c3C)C2)cc1OC (centres undefined)
- TGI (A498 renal): > 31.7 µM
- TGI (A549 NSCLC): > 167 µM
- TGI (CAKI-1 renal): > 200 µM
- TGI (CCRF-CEM leukemia): > 200 µM
- TGI (COLO 205 colon): 166 µM
- TGI (DLD-1 colon): > 200 µM
- TGI (DMS 114 small cell lung): 196 µM
- TGI (DMS 273 small cell lung): 199 µM
- TGI (EKVX NSCLC): > 200 µM
- TGI (HCC-2998 colon): 121 µM
- TGI (HCT-116 colon): 153 µM
- TGI (HCT-15 colon): > 200 µM
- TGI (HL-60(TB) leukemia): 140 µM
- TGI (HOP-18 NSCLC): 30.8 µM
- TGI (HOP-62 NSCLC): > 200 µM
- TGI (HOP-92 NSCLC): > 186 µM
- TGI (HT29 colon): > 200 µM
- TGI (IGROV1 ovarian): > 200 µM
- TGI (K-562 leukemia): > 200 µM
- TGI (KM12 colon): > 200 µM
- TGI (KM20L2 colon): > 200 µM
- TGI (LOX IMVI melanoma): 128 µM
- TGI (M19-MEL melanoma): > 200 µM
- TGI (MALME-3M melanoma): > 200 µM
- TGI (MCF7 breast): > 200 µM
- TGI (MOLT-4 leukemia): > 183 µM
- TGI (NCI-H226 lung): > 139 µM
- TGI (NCI-H23 lung): > 200 µM
- TGI (NCI-H460 lung): > 193 µM
- TGI (NCI-H522 lung): 142 µM
- TGI (NCI/ADR-RES ovarian): > 200 µM
- TGI (OVCAR-3 ovarian): > 195 µM
- TGI (OVCAR-4 ovarian): > 200 µM
- TGI (OVCAR-5 ovarian): > 162 µM
- TGI (OVCAR-8 ovarian): > 200 µM
- TGI (P388 leukemia): > 125 µM
- TGI (P388/ADR leukemia): > 113 µM
- TGI (RPMI-8226 leukemia): 166 µM
- TGI (RXF 393 renal): 131 µM
- TGI (SF-268 CNS): > 200 µM
- TGI (SF-295 CNS): > 176 µM
- TGI (SF-539 CNS): 197 µM
- TGI (SK-MEL-2 melanoma): 154 µM
- TGI (SK-MEL-28 melanoma): > 196 µM
- TGI (SK-MEL-5 melanoma): 24.6 µM
- TGI (SK-OV-3 ovarian): > 200 µM
- TGI (SN12C renal): > 200 µM
- TGI (SN12K1 renal): 154 µM
- TGI (SNB-19 CNS): > 200 µM
- TGI (SNB-75 CNS): 110 µM
- TGI (SNB-78 CNS): > 200 µM
- TGI (SW-620 colon): > 200 µM
- TGI (U251 CNS): > 200 µM
- TGI (UACC-257 melanoma): > 200 µM
- TGI (UACC-62 melanoma): > 200 µM
- TGI (UO-31 renal): 178 µM
- TGI (XF 498 CNS): 124 µM

SMILES: CN(C)CCNC(=O)c1cccc2[nH]c(-c3ccccn3)nc12
- TGI (A498 renal): > 94.8 µM
- TGI (A549 NSCLC): > 100 µM
- TGI (CAKI-1 renal): 78.1 µM
- TGI (CCRF-CEM leukemia): > 100 µM
- TGI (COLO 205 colon): 33.6 µM
- TGI (DLD-1 colon): > 100 µM
- TGI (DMS 114 small cell lung): > 80.2 µM
- TGI (DMS 273 small cell lung): > 72.2 µM
- TGI (EKVX NSCLC): > 100 µM
- TGI (HCC-2998 colon): > 100 µM
- TGI (HCT-116 colon): > 65.2 µM
- TGI (HCT-15 colon): > 100 µM
- TGI (HL-60(TB) leukemia): > 78.7 µM
- TGI (HOP-18 NSCLC): > 87 µM
- TGI (HOP-62 NSCLC): > 90.8 µM
- TGI (HOP-92 NSCLC): 80.8 µM
- TGI (HT29 colon): > 66.7 µM
- TGI (IGROV1 ovarian): > 100 µM
- TGI (K-562 leukemia): > 100 µM
- TGI (KM12 colon): > 100 µM
- TGI (KM20L2 colon): > 100 µM
- TGI (LOX IMVI melanoma): > 90.1 µM
- TGI (M19-MEL melanoma): > 91.8 µM
- TGI (MALME-3M melanoma): > 65.4 µM
- TGI (MCF7 breast): > 100 µM
- TGI (MOLT-4 leukemia): 70.6 µM
- TGI (NCI-H226 lung): 60.8 µM
- TGI (NCI-H23 lung): > 100 µM
- TGI (NCI-H460 lung): > 58.4 µM
- TGI (NCI-H522 lung): > 63.8 µM
- TGI (NCI/ADR-RES ovarian): > 87.7 µM
- TGI (OVCAR-3 ovarian): > 100 µM
- TGI (OVCAR-4 ovarian): > 78.6 µM
- TGI (OVCAR-5 ovarian): > 100 µM
- TGI (OVCAR-8 ovarian): > 100 µM
- TGI (P388 leukemia): 34.7 µM
- TGI (P388/ADR leukemia): 53.5 µM
- TGI (RPMI-8226 leukemia): 62.3 µM
- TGI (RXF 393 renal): > 100 µM
- TGI (SF-268 CNS): > 59.3 µM
- TGI (SF-295 CNS): > 100 µM
- TGI (SF-539 CNS): > 100 µM
- TGI (SK-MEL-2 melanoma): > 100 µM
- TGI (SK-MEL-28 melanoma): > 58 µM
- TGI (SK-MEL-5 melanoma): 48.7 µM
- TGI (SK-OV-3 ovarian): > 100 µM
- TGI (SN12C renal): > 100 µM
- TGI (SN12K1 renal): > 100 µM
- TGI (SNB-19 CNS): > 100 µM
- TGI (SNB-75 CNS): 92.8 µM
- TGI (SNB-78 CNS): > 100 µM
- TGI (SW-620 colon): > 100 µM
- TGI (U251 CNS): > 100 µM
- TGI (UACC-257 melanoma): > 93.6 µM
- TGI (UACC-62 melanoma): 42.7 µM
- TGI (UO-31 renal): > 72.4 µM
- TGI (XF 498 CNS): > 100 µM

From PubChem BioAssay (NCI)
